Source: US20110142884A1, “Materials and Methods for Making Improved Micelle Compositions” (The Board of Trustees of the University of Illinois, priority 2002, published 2011)

Assays:
[1] = test system: second order arterioles of the hamster cheek pouch microcirculation; experiment: Hamster cheek pouch microcirculation, arteriolar diameter during suffusion; assay type: in vivo; details: native VIP alone, suffusion
Protocol: According to this example, the vasorelaxant effects of VIP in a SSM were determined according to the following method. Specifically, adult male golden Syrian hamsters were purchased from Sasco (Omaha, Nebr.). Adult male hamsters with spontaneous hypertension and their normotensive controls were purchased from the Canadian Hybrid Farms (Halls Harbour, NS, Canada). Hypertensive animals have been identified after cross-breeding of hamsters with hereditary cardiomyopathy and normal golden Syrian hamsters. These albino animals have previously been used in our laboratory (Rubinstein et al., Biochem. Biophys. Res. Commun. 183:1117-1123 (1992); Artwohl et al., FASEB J. 10:A629 (1996)). Animals were anesthetized with pentobarbital sodium (6 mg/100 g body weight, i.p.). A tracheotomy was performed to facilitate spontaneous breathing. A femoral vein was cannulated to inject supplemental anesthesia during the experiment (2-4 mg/100 g body weight/h). Body temperature was maintained constant (37-38° C.) and monitored via heating pad and a feed back controller throughout the experiment.
The bioactivity of the VIP in SSM by diffusing it in situ was determined by visualization of the microcirculation of the hamster cheek pouch. The microcirculation of the cheek pouch was visualized locally by a method previously developed in our laboratory (Suzuki et al., Life Sci. 57:1451-1457 (1995); Suzuki et al., Am. J. Physiol. 271:R393-R397 (1996); and Suzuki et al., Am. J. Physiol. 271:H282-H287 (1996)). Briefly, the left cheek pouch was spread over a small plastic baseplate, and an incision was made in the outer skin to expose the cheek pouch membrane. The connective avascular tissue layer was removed, and a plastic chamber was placed over the baseplate and secured in place by suturing the skin around the upper chamber. This forms a triple-layered complex: the baseplate, the exposed cheek pouch membrane, and the upper chamber. After these initial procedures, the hamster is transferred to a heated microscope stage. The chamber was connected to a reservoir containing warmed bicarbonate buffer (37-38° C.) that allowed continuous suffusion of the cheek pouch. The buffer was bubbled continuously with 95% N2-5% CO2 (pH 7.4). […]
The cheek pouch microcirculation was epi-illuminated with a 100-W mercury light source and viewed through a microscope (Nikon, Tokyo, Japan) at a magnification of ×40. […] The inner-wall diameter of second order arterioles ([…]), which modulated vascular resistance in the cheek pouch, (Raud, Acta Physiol. Scand. (Suppl.) 578:1-58 (1989); Suzuki et al., Life Sci. 57:1451-1457 (1995); Suzuki et al., Am. J. Physiol. 271:R393-R397 (1996)) was measured from the video display of the microscope image using a videomicrometer (VIA 100; Boeckeler Instruments, Tucson, Ariz.). […]

[2] = test system: mice with collagen-induced arthritis (CIA); experiment: Collagen induced arthritis (CIA) in mice; assay type: in vivo; details: for hind paw thickness (PT) increase: tail vein
Protocol: SSM were prepared as described above in previous examples and by Onyuksel et al. (1999). VIP (1.0 nmol) was incubated with SSM for 2 h at 25° C. Size of VIP-SSM was determined by dynamic light-scattering. The effects of dilution on VIP-SSM were determined by size exclusion chromatography (SEC). Effects of VIP-SSM (1.0 nmol) and VIP in buffer (1.0 nmol and 5.0 nmol) were evaluated in mice with CIA treated on day 22 or 34 post-CIA induction. Clinical arthritis score (CAS) and hind paw thickness (PT) were recorded until day 45 post induction.
VIP, VIP-SSM (each, 0.5, 1.0 & 5.0 nmol), empty micelles, and buffer were injected into the tail vein on day 22 or day 34 post-CIA induction. Clinical arthritis score (CAS) and hind paw thickness (PT) were recorded until day 45 post-CIA induction. Systemic arterial pressure (SAP) was recorded by tail cuff in restrained mice. […] CAS reductions were similar to PT after treatment with α-helix VIP- and aqueous VIP-treated mice.

[3] = test system: mice with collagen-induced arthritis (CIA); details: repeated intraperitoneal administration, 5.0 nmol, Delgado et al. 2001; cited from earlier work
man = details: infusion in man for 10 hours; cited from earlier work

vasoactive intestinal peptide [VIP]
effects on the arteriolar diameter [1]: no significant effects | hind paw thickness (PT) increase ([2]; 0.5 nmol dose): 85.63±6.20% | hind paw thickness (PT) increase ([2]; 1.0 nmol dose): 78.66±6.44% | progression of CIA (PT and CAS data) ([2]; 1.0 nmol, treated on day 22): 78.09% | progression of CIA (PT and CAS data) ([2]; 1.0 nmol, treated on day 34): 96.55% | hind paw thickness (PT) increase ([2]; 5.0 nmol dose): 46.69±6.92% | progression of CIA (PT and CAS data) ([2]; 5.0 nmol, treated on day 22): 56.37% | progression of CIA (PT and CAS data) ([2]; 5.0 nmol, treated on day 34): 69.71% | effect on CIA [3]: ameliorates CIA | increase of forearm blood flow (man): 270% | reduction of total peripheral resistance (man): 30%
